Measured values as given in patent publication EP3436024B1, “3-BETA-METHOXY-PREG FOR USE IN THE TREATMENT OF TREATMENT RESISTANT DEPRESSION” (Mapreg, priority 2016, dated 2017).

How the values were obtained:
Serotoninergic 5-HT2A = Serotoninergic 5-HT2A (Homo sapiens, UniProt P28223); assay: CNS receptor binding assay, 5-HT2A; conditions: MAP4343 10 µM; [^3H] ketanserin; Human recombinant (HEK-293 cells); read-out: % Inhibition of control specific binding
Experimental: (§1) MAP4343 has been screened for in vitro affinity to 80 different CNS neurotransmitters receptors using various validated binding assays.
(§2) Table 4. In vitro affinity of MAP4343 (10 µM) for CNS neurotransmitter receptors associated with side effects and/or abuse liability. Data are the average of two individual assays for each receptor and are expressed as % inhibition of the control specific binding of the reference compound. Results showing an inhibition higher than 50% are considered to represent significant effects of the test compound.

Wistar Kyoto (WKY) rats [1] = assay: Elevated-plus maze (EPM), WKY rats; assay type: in vivo, rat; conditions: acute, MAP4343 10 mg/kg s.c., fluoxetine 10 mg/kg, ketamine 30 mg/kg i.p., Fig. 5D
Experimental: (§3) After a 6-day period of acclimatization, all experimental groups received daily successive subcutaneous (250 µl per rat) and intraperitoneal (1 ml/kg) injections. WI rats received injection of vehicle (sesame oil + saline) while WKY rats were randomly assigned to […], as follow: KWY rats receiving only vehicle (sesame oil + saline) and WKY rats treated with MAP4343 (10 mg/kg, s.c.; rats received in parallel i.p. injections of saline), fluoxetine (10 mg/kg i.p., rats received in parallel s.c. injections of sesame oil) or ketamine (30 mg/kg, i.p.; rats received in parallel s.c. injections of sesame oil) (see Figure 3).
(§4) After, a 6-day period of acclimatization, the acute phase of treatment started for 4 days during behavioral tests were performed (Figure 3). All animals were injected 1h30 before the starting of behavioral test.
We used the elevated-plus maze (EPM) as an assay of anxiety-related behavior in rodents (Walf and Frye, 2007). Rats were initially placed in the center of the plus-maze, consisting of two open arms (50 x 10 cm) and two closed arms (50 x 10 cm enclosed by 40 cm walls), in a 50 lux illuminated room and videotaped during 5 min using a computerized system (VideoTrack V2.5, ViewPoint, Lyon, France). The time spent in the open versus closed arms was blindly measured by two independent experimenters from the recorded video, and the open arm-index was calculated as follow: time in the open arms (sec) / [time in open arms (sec) + time in closed arms (sec)].

Androgen Receptor (AR) = target: T1, Androgen Receptor (AR) (Rattus norvegicus, UniProt P15207); assay: Radioligand binding assay, steroid hormone receptor AR; conditions: MAP4343 10 µM; 1.5 nM [^3H] Mibolerone; Rat recombinant E. coli
T1 construct: host or cells: E. coli
Experimental: Binding affinity of 3β-methoxy-PREG (MAP4343) for receptors of steroid hormones was evaluated using radioligand binding assays.
Table 3. Affinity of MAP4343 (10 µM) for steroid hormones receptors measured by radioligand binding assays. […] None of the results met significance criteria at concentrations used.

Oppioid K = Oppioid K (Rattus norvegicus, UniProt P34975); assay: CNS receptor binding assay, opioid K; conditions: MAP4343 10 µM; [^3H] U 69593; rat recombinant (CHO cells); read-out: % Inhibition of control specific binding
Experimental: as §1, §2

[2] = target: purified tubulin and MAP2 (Homo sapiens, UniProt P11137); assay: Microtubule polymerization activity (optical density at 345 nm); assay type: biochemical; conditions: increase in optical density at 345 nm, 37 °C, in the presence of GTP
Experimental: Activity is measured by the increase in optical density at 345 nm of a mixture of purified tubulin and MAP2, incubated at 37 °C in the presence of GTP.

Serotoninergic 5-HT7 = Serotoninergic 5-HT7 (Homo sapiens, UniProt P34969); assay: CNS receptor binding assay, 5-HT7; conditions: MAP4343 10 µM; [^3H] LSD; Human recombinant (CHO cells); read-out: % Inhibition of control specific binding
Experimental: as §1, §2

[3] = target: T2, Muscarinic (Cholinergic) M3 (Homo sapiens, UniProt P20309); assay: CNS receptor binding assay, M3; conditions: MAP4343 10 µM; [^3H] 4-DAMP; Human recombinant (CHO cells); read-out: % Inhibition of control specific binding
T2 construct: expressed in transfected cells; host or cells: CHO cells
Experimental: as §1, §2

Wistar Kyoto (WKY) rats [4] = assay: Anxious-like behavior: activity in the central square of the open-field arena, WKY rats; assay type: in vivo, rat; conditions: acute, MAP4343 10 mg/kg s.c., fluoxetine 10 mg/kg i.p., ketamine 30 mg/kg i.p.
Experimental: as §3, §4
The animals were individually placed in the open field arena (OFA) (70 x 100 x 70 cm), with a central square (35 x 50 cm), located in a 50 lux illuminated room and videotaped during 3 min using a computerized system (VideoTrack V2.5, ViewPoint, Lyon, France).
OFA allows firstly the evaluation of total locomotor activity (LMA) thereby measuring the total distance travelled in the arena (in cm). Secondly, measurements of the activity in the center of the arena like (i) the number of entries in the center of arena and (ii) the total time spent in the center of arena (in sec) provide cues of anxiety-like behavior (Prut and Belzung, 2003). All these behavioral parameters were instantaneously measured automatically with the VideoTrack V2.5 software from the videos.

Serotoninergic 5-HT2C = Serotoninergic 5-HT2C (Homo sapiens, UniProt P28335); assay: CNS receptor binding assay, 5-HT2C; conditions: MAP4343 10 µM; [^3H] mesulergine; Human recombinant (CHO cells); read-out: % Inhibition of control specific binding
Experimental: as §1, §2

Histaminergic H1 = Histaminergic H1 (Homo sapiens, UniProt P35367); assay: CNS receptor binding assay, H1; conditions: MAP4343 10 µM; [^3H] pyrilamine; Human recombinant (HEK-293 cells); read-out: % Inhibition of control specific binding
Experimental: as §1, §2

Noradrenergic α2 = assay: CNS receptor binding assay, α2; conditions: MAP4343 10 µM; [^3H] RX 821002; rat cerebral cortex
Experimental: as §1, §2

Dopaminergic D1 = Dopaminergic D1 (Homo sapiens, UniProt P21728); assay: CNS receptor binding assay, D1; conditions: MAP4343 10 µM; [^3H] SCH 23390; Human recombinant (CHO cells); read-out: % Inhibition of control specific binding
Experimental: as §1, §2

Serotoninergic 5-HT3 = Serotoninergic 5-HT3 (Homo sapiens, UniProt P46098); assay: CNS receptor binding assay, 5-HT3; conditions: MAP4343 10 µM; [^3H] BRL 43694; Human recombinant (CHO cells); read-out: % Inhibition of control specific binding
Experimental: as §1, §2

Noradrenergic β1 = Noradrenergic β1 (Homo sapiens, UniProt P08588); assay: CNS receptor binding assay, β1; conditions: MAP4343 10 µM; [^3H] (-) CGP 12177; Human recombinant (HEK-293 cells); read-out: % Inhibition of control specific binding
Experimental: as §1, §2

T1 sequence (P15207 615-902 limits assumed): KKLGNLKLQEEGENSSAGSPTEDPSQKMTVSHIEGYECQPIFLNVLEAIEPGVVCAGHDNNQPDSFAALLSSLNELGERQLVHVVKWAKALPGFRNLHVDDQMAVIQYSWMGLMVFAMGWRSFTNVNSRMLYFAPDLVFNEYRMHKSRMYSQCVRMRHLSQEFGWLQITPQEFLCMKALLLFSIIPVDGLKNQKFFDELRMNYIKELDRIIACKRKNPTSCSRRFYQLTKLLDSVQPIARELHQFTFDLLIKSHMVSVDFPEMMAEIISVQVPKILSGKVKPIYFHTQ
Sequence of Serotoninergic 5-HT2C (P28335 33-458): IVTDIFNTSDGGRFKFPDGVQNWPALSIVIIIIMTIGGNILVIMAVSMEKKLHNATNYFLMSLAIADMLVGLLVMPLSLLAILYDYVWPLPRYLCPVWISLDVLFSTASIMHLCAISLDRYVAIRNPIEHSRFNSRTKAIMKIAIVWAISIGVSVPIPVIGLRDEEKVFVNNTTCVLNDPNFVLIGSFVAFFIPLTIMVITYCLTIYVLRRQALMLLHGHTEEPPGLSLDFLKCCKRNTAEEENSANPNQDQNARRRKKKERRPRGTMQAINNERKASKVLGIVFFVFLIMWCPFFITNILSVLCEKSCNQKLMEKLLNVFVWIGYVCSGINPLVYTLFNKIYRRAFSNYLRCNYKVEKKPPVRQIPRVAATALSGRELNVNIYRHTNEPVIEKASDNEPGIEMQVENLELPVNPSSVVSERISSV
Sequence of Noradrenergic β1 (P08588 whole entry): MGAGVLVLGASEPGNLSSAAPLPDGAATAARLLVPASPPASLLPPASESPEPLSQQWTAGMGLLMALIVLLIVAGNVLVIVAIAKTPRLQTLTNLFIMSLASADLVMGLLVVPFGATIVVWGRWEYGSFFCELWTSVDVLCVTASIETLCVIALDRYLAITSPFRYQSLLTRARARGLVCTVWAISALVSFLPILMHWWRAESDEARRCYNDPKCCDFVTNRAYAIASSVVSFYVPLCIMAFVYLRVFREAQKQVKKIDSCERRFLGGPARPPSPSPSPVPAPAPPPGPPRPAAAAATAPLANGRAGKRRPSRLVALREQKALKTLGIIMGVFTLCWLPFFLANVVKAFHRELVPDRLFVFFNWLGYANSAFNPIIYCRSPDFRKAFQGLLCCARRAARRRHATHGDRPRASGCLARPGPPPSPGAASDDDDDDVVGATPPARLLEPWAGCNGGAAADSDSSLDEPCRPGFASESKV
Sequence of Serotoninergic 5-HT7 (P34969 whole entry): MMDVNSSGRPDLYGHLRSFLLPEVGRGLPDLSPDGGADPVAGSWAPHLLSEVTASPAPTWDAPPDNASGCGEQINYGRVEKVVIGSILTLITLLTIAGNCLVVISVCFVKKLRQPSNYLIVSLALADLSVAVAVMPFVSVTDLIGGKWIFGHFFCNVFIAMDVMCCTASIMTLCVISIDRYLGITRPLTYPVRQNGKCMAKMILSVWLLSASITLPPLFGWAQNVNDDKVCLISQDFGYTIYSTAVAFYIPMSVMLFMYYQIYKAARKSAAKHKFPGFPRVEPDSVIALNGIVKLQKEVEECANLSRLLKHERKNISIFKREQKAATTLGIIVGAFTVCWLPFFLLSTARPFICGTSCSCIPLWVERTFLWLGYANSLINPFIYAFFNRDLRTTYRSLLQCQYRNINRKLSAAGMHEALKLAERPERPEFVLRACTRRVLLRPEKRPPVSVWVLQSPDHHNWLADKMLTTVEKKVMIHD
Sequence of Dopaminergic D1 (P21728 whole entry): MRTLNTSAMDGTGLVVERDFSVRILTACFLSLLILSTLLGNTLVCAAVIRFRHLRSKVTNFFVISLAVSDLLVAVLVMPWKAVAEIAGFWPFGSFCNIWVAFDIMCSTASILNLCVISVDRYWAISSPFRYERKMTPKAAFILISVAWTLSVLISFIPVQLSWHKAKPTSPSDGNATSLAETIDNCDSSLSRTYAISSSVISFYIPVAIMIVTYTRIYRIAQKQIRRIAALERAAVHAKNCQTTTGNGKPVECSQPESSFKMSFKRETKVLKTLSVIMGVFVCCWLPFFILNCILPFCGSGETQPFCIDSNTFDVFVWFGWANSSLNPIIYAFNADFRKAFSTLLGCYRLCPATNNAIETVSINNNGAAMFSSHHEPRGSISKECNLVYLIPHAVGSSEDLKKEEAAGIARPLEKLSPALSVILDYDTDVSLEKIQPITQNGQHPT
Sequence of Histaminergic H1 (P35367 whole entry): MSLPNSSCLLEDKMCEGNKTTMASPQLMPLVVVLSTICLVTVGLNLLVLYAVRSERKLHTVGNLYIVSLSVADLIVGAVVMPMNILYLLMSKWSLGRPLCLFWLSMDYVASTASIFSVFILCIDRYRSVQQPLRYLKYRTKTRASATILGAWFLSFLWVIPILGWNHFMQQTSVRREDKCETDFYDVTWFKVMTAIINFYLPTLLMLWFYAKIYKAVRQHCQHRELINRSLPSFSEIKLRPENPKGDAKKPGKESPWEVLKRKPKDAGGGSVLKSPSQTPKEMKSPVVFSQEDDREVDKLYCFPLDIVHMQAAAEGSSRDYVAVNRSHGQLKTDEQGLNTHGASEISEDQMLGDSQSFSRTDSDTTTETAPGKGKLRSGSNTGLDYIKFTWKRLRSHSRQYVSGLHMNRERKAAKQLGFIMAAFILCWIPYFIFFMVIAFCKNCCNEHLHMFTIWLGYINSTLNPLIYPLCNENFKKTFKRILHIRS
Sequence of Serotoninergic 5-HT2A (P28223 whole entry): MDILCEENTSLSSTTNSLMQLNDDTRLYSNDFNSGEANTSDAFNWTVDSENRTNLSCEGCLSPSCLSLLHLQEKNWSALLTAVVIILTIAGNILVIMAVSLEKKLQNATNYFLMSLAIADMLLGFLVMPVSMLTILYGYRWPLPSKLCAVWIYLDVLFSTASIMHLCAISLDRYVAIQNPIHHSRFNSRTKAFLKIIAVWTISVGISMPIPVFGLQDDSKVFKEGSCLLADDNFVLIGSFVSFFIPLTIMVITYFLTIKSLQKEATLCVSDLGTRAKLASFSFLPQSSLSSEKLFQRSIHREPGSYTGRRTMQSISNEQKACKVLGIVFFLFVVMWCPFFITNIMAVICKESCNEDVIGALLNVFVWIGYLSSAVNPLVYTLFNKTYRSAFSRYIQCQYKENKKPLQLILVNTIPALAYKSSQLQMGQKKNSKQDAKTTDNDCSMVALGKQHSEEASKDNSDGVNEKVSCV
Sequence of purified tubulin and MAP2 (P11137 whole entry): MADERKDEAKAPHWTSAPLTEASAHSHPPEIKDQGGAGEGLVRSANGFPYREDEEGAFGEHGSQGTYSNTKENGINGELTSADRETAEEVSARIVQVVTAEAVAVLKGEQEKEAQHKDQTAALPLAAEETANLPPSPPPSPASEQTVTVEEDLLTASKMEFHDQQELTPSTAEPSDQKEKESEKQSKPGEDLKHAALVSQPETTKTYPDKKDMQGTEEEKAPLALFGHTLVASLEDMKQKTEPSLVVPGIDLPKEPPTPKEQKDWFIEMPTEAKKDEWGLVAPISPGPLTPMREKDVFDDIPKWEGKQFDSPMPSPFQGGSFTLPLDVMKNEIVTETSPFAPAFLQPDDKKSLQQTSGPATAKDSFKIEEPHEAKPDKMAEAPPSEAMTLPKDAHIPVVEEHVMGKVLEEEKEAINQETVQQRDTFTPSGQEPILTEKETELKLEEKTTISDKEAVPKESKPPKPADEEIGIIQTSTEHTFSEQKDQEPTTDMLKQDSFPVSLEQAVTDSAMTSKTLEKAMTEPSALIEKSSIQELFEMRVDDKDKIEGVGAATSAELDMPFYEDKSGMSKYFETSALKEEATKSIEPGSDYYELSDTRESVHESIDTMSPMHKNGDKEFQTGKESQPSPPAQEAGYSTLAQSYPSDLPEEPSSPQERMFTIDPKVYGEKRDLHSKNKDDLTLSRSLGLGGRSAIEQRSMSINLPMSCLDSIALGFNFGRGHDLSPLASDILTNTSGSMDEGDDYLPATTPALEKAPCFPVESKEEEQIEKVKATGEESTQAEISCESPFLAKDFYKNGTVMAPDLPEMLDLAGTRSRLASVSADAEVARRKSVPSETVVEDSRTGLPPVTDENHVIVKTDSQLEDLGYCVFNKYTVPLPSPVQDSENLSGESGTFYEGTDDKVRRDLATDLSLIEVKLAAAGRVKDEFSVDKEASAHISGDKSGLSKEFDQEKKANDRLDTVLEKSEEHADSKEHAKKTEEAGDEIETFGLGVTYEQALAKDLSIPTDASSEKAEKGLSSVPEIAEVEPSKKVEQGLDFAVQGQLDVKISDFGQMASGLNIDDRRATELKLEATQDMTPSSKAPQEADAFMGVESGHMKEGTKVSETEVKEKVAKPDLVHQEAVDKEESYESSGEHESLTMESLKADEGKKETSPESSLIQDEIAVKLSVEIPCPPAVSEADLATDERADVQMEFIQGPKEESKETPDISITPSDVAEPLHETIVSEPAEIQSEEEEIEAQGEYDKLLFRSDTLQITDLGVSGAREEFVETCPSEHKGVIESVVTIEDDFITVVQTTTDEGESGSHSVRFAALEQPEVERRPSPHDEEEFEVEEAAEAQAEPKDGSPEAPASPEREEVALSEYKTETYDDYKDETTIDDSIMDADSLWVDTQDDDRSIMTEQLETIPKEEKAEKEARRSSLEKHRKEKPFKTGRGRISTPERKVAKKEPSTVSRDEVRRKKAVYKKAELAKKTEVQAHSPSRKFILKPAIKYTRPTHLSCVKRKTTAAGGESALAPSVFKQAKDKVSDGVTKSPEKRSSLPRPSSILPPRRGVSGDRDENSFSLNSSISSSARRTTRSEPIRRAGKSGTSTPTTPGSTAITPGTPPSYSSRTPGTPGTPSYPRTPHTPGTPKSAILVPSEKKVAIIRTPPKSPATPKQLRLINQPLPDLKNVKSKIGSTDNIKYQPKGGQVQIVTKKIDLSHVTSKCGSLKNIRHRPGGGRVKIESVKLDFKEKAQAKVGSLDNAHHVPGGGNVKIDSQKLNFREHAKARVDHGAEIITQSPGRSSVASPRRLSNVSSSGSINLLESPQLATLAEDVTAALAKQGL

CO[C@H]1CC[C@@]2(C)C(=CC[C@H]3[C@@H]4CC[C@H](C(C)=O)[C@@]4(C)CC[C@@H]32)C1 (stereo in doubt) [MAP4343, 3β-methoxy-pregna-5-ene-20-one] was tested, and the inhibition at 10 µM (Serotoninergic 5-HT2A) was 1%, the “open-arm (OA) index, change when compared to WKY receiving vehicle alone” value (Wistar Kyoto (WKY) rats [1]) was 165% and the “% inhibition” value (Androgen Receptor (AR)) was 18%. For the same molecule, the inhibition at 10 µM (Androgen Receptor (AR)) was under 25%, the inhibition at 10 µM (Oppioid K) was 19% and the Activity [2] was 100% of PREG. The inhibition at 10 µM (Serotoninergic 5-HT7) was -11%, the inhibition at 10 µM [3] was 3% and the “number of entries in the central square of OFA, change as compared to WKY receiving only vehicle” value (Wistar Kyoto (WKY) rats [4]; Fig. 5B) was “+289%”. The “time spent in the center of open-field, change as compared to WKY receiving vehicle” value (Wistar Kyoto (WKY) rats [4]; Fig. 5C) was “did not modify”, the inhibition at 10 µM (Serotoninergic 5-HT2C) was 7% and the inhibition at 10 µM (Histaminergic H1) was 9%. The “% Inhibition of control specific binding” value (Noradrenergic α2) was 7%, the inhibition at 10 µM (Dopaminergic D1) was 2% and the inhibition at 10 µM (Serotoninergic 5-HT3) was 10%. It also gave an inhibition at 10 µM (Noradrenergic β1) of 1%.
